SMILES strings stand for the structures. Structures can show the parent of a compound that is named as a salt.

The target of this test is T1, AR (Homo sapiens, UniProt P10275).
T1 construct: endogenous in cells; host or cells: VCaP cells
T1 sequence (P10275 1-920): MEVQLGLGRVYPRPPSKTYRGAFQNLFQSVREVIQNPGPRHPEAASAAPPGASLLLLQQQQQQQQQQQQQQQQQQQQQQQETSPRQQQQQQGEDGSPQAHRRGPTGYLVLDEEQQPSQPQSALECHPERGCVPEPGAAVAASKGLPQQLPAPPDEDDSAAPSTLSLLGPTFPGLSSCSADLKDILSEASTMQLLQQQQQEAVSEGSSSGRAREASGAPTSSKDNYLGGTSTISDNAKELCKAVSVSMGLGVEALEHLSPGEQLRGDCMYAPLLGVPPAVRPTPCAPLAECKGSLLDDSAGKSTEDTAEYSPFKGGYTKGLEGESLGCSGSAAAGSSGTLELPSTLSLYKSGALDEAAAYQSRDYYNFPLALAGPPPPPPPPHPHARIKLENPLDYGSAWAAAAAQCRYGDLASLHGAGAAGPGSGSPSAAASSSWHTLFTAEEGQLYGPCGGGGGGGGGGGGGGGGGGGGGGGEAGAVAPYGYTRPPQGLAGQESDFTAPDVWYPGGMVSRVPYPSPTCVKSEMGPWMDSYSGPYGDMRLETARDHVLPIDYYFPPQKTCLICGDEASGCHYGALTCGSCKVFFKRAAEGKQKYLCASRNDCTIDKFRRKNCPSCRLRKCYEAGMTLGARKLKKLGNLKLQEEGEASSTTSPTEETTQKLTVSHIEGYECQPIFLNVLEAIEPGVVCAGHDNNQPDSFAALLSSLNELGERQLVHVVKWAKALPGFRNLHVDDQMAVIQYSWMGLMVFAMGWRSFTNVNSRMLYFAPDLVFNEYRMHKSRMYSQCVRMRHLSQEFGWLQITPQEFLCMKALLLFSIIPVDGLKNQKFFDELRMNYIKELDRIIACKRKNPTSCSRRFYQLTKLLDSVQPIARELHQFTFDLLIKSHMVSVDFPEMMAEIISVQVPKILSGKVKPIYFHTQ
The test is described as follows: VCAP AR Degradation Assay. The class given is cell-based. The conditions noted are these: for Y (AR degradation efficiency, % of DMSO control): class symbols *; for DC50: class symbols A-C, read-out: DC50. Put shortly: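 Compounds were plated as 10-point 1:3 series reaching 5 μM final, then VCaP cells were seeded onto them and incubated 24 h at 37 °C. Cells were lysed cold, and total AR was measured by sandwich ELISA relative to 0.1% DMSO wells.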

Regarding `CC(C)c1cc(N2C(=S)N(c3ccc(C#N)c(C(F)(F)F)c3)C(=O)C2(C)C)cnc1OCCN1C[C@@H](C)N(CC(=O)Nc2cccc(NC3CCC(=O)NC3=O)c2)[C@@H](C)C1` (stereo partly drawn) [Example 224, 2-((2R,6S)-4-(2-(5-(3-(4-cyano-3-(trifluoromethyl)phenyl)-5,5-dimethyl-4-oxo-2-thioxoimidazolidin-1-yl)-3-isopropylpyridin-2-yloxy)ethyl)-2,6-dimethylpiperazin-1-yl)-N-(3-(2,6-dioxopiperidin-3-ylamino)phenyl)acetamide], the “Y (AR degradation efficiency, % of DMSO control)” value is “** (25%<Y<=35%)” and the DC50 is 100 to 500 nM.

Regarding `CCc1cc(N2C(=S)N(c3cnc(C#N)c(C(F)(F)F)c3)C(=O)C2(C)C)ccc1OCCN1C[C@H]2CC[C@@H]1CN2CC(=O)Nc1cccc(NC2CCC(=O)NC2=O)c1` (stereo partly drawn) [Example 183, 2-((1R,4R)-5-(2-(4-(3-(6-cyano-5-(trifluoromethyl)pyridin-3-yl)-5,5-dimethyl-4-oxo-2-thioxoimidazolidin-1-yl)-2-ethylphenoxy)ethyl)-2,5-diazabicyclo[2.2.2]octan-2-yl)-N-(3-(2,6-dioxopiperidin-3-ylamino)phenyl)acetamide], the “Y (AR degradation efficiency, % of DMSO control)” value was “** (25%<Y<=35%)” and the 50% degradation concentration (DC50) lay within 100 to 500 nM.

Take `CCc1cc(N2C(=S)N(c3ccc(C#N)c(C(F)(F)F)c3)C(=O)C2(C)C)ccc1OCCN1CCN(CC(=O)Nc2cccc(NC3CCC(=O)NC3=O)c2)CC1` (stereo not drawn) [Example 10, hydrochloride]: the “Y (AR degradation efficiency, % of DMSO control)” value is given as “* (0<Y<=25%)” and the 50% degradation concentration (DC50) was < 100 nM.

Regarding `CC(C)c1cc(N2C(=S)N(c3ccc(C#N)c(C(F)(F)F)c3)C(=O)C2(C)C)ccc1OCCN1CCN(CC(=O)Nc2cccc(NC3CCC(=O)NC3=O)c2)[C@H](C(F)(F)F)C1` (stereo partly drawn) [Example 257, 2-((S)-4-(2-(4-(3-(4-cyano-3-(trifluoromethyl)phenyl)-5,5-dimethyl-4-oxo-2-thioxoimidazolidin-1-yl)-2-isopropylphenoxy)ethyl)-2-(trifluoromethyl)piperazin-1-yl)-N-(3-(2,6-dioxopiperidin-3-ylamino)phenyl)acetamide], the “Y (AR degradation efficiency, % of DMSO control)” value was “*** (35%<Y<50%)” and the DC50 was in the range of 500 to 1000 nM.

For `CC(C)c1cc(N2C(=S)N(c3cnc(C#N)c(C(F)(F)F)c3)C(=O)C2(C)C)ccc1OCCN1CCN(CC(=O)Nc2cccc(NC3CCC(=O)NC3=O)c2)CC1` (stereo not drawn) [Example 53, 2-(4-(2-(4-(3-(6-cyano-5-(trifluoromethyl)pyridin-3-yl)-5,5-dimethyl-4-oxo-2-thioxoimidazolidin-1-yl)-2-isopropylphenoxy)ethyl)piperazin-1-yl)-N-(3-(2,6-dioxopiperidin-3-ylamino)phenyl)acetamide], the “Y (AR degradation efficiency, % of DMSO control)” value was “* (0<Y<=25%)” and the DC50 was < 100 nM.

For `CCc1cc(N2C(=S)N(c3cnc(C#N)c(C(F)(F)F)c3)C(=O)C2(C)C)ccc1OCCN1CCN(C2(C(=O)Nc3cc(Cl)cc(NC4CCC(=O)NC4=O)c3)CC2)CC1` (stereo not drawn) [Example 165, N-(3-chloro-5-(2,6-dioxopiperidin-3-ylamino)phenyl)-1-(4-(2-(4-(3-(6-cyano-5-(trifluoromethyl)pyridin-3-yl)-5,5-dimethyl-4-oxo-2-thioxoimidazolidin-1-yl)-2-ethylphenoxy)ethyl)piperazin-1-yl)cyclopropanecarboxamide], the “Y (AR degradation efficiency, % of DMSO control)” value is listed as “* (0<Y<=25%)” and the 50% degradation concentration (DC50) is < 100 nM.

On to `CCc1cc(N2C(=S)N(c3cnc(C#N)c(C(F)(F)F)c3)C(=O)C23CCC3)ccc1OCCN1C[C@@H]2CC[C@H]1CN2CC(=O)Nc1cccc(NC2CCC(=O)NC2=O)c1` (stereo partly drawn) [Example 172, 2-((1S,4S)-5-(2-(4-(7-(6-cyano-5-(trifluoromethyl)pyridin-3-yl)-8-oxo-6-thioxo-5,7-diazaspiro[3.4]octan-5-yl)-2-ethylphenoxy)ethyl)-2,5-diazabicyclo[2.2.2]octan-2-yl)-N-(3-(2,6-dioxopiperidin-3-ylamino)phenyl)acetamide], for which the “Y (AR degradation efficiency, % of DMSO control)” value is “*** (35%<Y<50%)” and the DC50 lay within 100 to 500 nM.

`CCc1cc(N2C(=S)N(c3cnc(C#N)c(C(F)(F)F)c3)C(=O)C2(C)C)ccc1OCCN1CCN(CC(=O)Nc2cc(NC3CCC(=O)NC3=O)cc(F)c2F)[C@H](C)C1` (stereo partly drawn) [Example 100, 2-((R)-4-(2-(4-(3-(6-cyano-5-(trifluoromethyl)pyridin-3-yl)-5,5-dimethyl-4-oxo-2-thioxoimidazolidin-1-yl)-2-ethylphenoxy)ethyl)-2-methylpiperazin-1-yl)-N-(5-(2,6-dioxopiperidin-3-ylamino)-2,3-difluorophenyl)acetamide]: the “Y (AR degradation efficiency, % of DMSO control)” value is reported as “* (0<Y<=25%)” and the DC50 was < 100 nM.

For the compound `N#Cc1ncc(N2C(=O)C3(CCC3)N(c3ccc(OCCN4CCN(CC(=O)Nc5cccc(NC6CCC(=O)NC6=O)c5)CC4)c(F)c3)C2=S)cc1C(F)(F)F` (stereo not drawn) [Example 6], the “Y (AR degradation efficiency, % of DMSO control)” value was “** (25%<Y<=35%)” and the DC50 is < 100 nM.

`CCc1cc(N2C(=S)N(c3cnc(C#N)c(C(F)(F)F)c3)C(=O)C2(C)C)ccc1OCCN1CCN(CC(=O)Nc2cc(F)cc(NC3CCC(=O)NC3=O)c2)CC1` (stereo not drawn) [Example 63, 2-(4-(2-(4-(3-(6-cyano-5-(trifluoromethyl)pyridin-3-yl)-5,5-dimethyl-4-oxo-2-thioxoimidazolidin-1-yl)-2-ethylphenoxy)ethyl)piperazin-1-yl)-N-(3-(2,6-dioxopiperidin-3-ylamino)-5-fluorophenyl)acetamide]: the “Y (AR degradation efficiency, % of DMSO control)” value is on record as “* (0<Y<=25%)” and the 50% degradation concentration (DC50) is < 100 nM.

`CC[C@H]1CN(CCOc2ccc(N3C(=S)N(c4ccc(C#N)c(C(F)(F)F)c4)C(=O)C3(C)C)cc2C2CC2)CCN1CC(=O)Nc1cccc(NC2CCC(=O)NC2=O)c1` (stereo partly drawn) [Example 263, 2-((S)-4-(2-(4-(3-(4-cyano-3-(trifluoromethyl)phenyl)-5,5-dimethyl-4-oxo-2-thioxoimidazolidin-1-yl)-2-cyclopropylphenoxy)ethyl)-2-ethylpiperazin-1-yl)-N-(3-(2,6-dioxopiperidin-3-ylamino)phenyl)acetamide]: the “Y (AR degradation efficiency, % of DMSO control)” value is “* (0<Y<=25%)” and the DC50 is < 100 nM.

`CCc1cc(N2C(=S)N(c3cnc(C#N)c(C(F)(F)F)c3)C(=O)C2(C)C)ccc1OCCN1CCN(CC(=O)Nc2cc(Cl)cc(NC3CCC(=O)NC3=O)c2)[C@@H](C)C1` (stereo partly drawn) [Example 131, N-(3-chloro-5-(2,6-dioxopiperidin-3-ylamino)phenyl)-2-((S)-4-(2-(4-(3-(6-cyano-5-(trifluoromethyl)pyridin-3-yl)-5,5-dimethyl-4-oxo-2-thioxoimidazolidin-1-yl)-2-ethylphenoxy)ethyl)-2-methylpiperazin-1-yl)acetamide]: the “Y (AR degradation efficiency, % of DMSO control)” value is reported as “* (0<Y<=25%)” and the DC50 is < 100 nM.

With `C[C@@H]1CN(CCOc2ccc(N3C(=S)N(c4ccc(C#N)c(C(F)(F)F)c4)C(=O)C3(C)C)cc2F)CCN1CC(=O)Nc1cccc(NC2CCC(=O)NC2=O)c1` (stereo partly drawn) [Example 277, 2-((R)-4-(2-(4-(3-(4-cyano-3-(trifluoromethyl)phenyl)-5,5-dimethyl-4-oxo-2-thioxoimidazolidin-1-yl)-2-fluorophenoxy)ethyl)-2-methylpiperazin-1-yl)-N-(3-(2,6-dioxopiperidin-3-ylamino)phenyl)acetamide], the “Y (AR degradation efficiency, % of DMSO control)” value is “*** (35%<Y<50%)” and the DC50 is < 100 nM.

Regarding `CCc1cc(N2C(=S)N(c3cnc(C#N)c(C(F)(F)F)c3)C(=O)C2(C)C)ccc1OCCN1CCN([C@H](C)C(=O)Nc2cc(Cl)cc(NC3CCC(=O)NC3=O)c2)CC1` (single isomer, unassigned) [Example 113], the “Y (AR degradation efficiency, % of DMSO control)” value is “* (0<Y<=25%)” and the DC50 was < 100 nM.

For the compound `CC(C)c1cc(N2C(=S)N(c3ccc(C#N)c(C(F)(F)F)c3)C(=O)C2(C)C)ccc1OCCN1C[C@@H](C)N(CC(=O)Nc2cc(C#N)cc(NC3CCC(=O)NC3=O)c2)[C@@H](C)C1` (stereo partly drawn) [Example 194, 2-((2S,6R)-4-(2-(4-(3-(4-cyano-3-(trifluoromethyl)phenyl)-5,5-dimethyl-4-oxo-2-thioxoimidazolidin-1-yl)-2-isopropylphenoxy)ethyl)-2,6-dimethylpiperazin-1-yl)-N-(3-cyano-5-(2,6-dioxopiperidin-3-ylamino)phenyl)acetamide], the “Y (AR degradation efficiency, % of DMSO control)” value is listed as “* (0<Y<=25%)” and the DC50 was < 100 nM.

One may read the DC50 as the concentration at which degradation of the target reaches its halfway point.

(Values after patent US12404241B2 (Celgene Corporation, priority 2018, dated 2025).)
